What was measured:
[1] = cited from earlier work
[2] = when combined with letrozole/abemaciclib

For `CN(C)C(=N)N=C(N)N` [metformin], the “recommended maximum concentration for safe clinical use” value [1] is given as 2500 µg/L and the “increase in metformin exposure” value [2] is given as “more than 3 fold”.
